Test results reported in patent publication US20110200646A1, “The TRPVL Antagonists SB-795498 For Treating Rhinitis” (priority 2008, published 2011).

Tests used:
[1] = tested on: capsaicin provoked nasal tissue response; test: Contralateral nasal tissue volume (MRI) after ipsilateral capsaicin challenge in guinea pig; type: in vivo; details: 1 hour pre-treatment, 0.3 mM capsaicin challenge
Procedure: (§1) Dunkin Hartley guinea pigs (ca. 180-200 g) were intranasally sensitised into both nostrils twice daily for 5 days with 25 μl of 10 μg ovalbimun plus 10 mg aluminium hydroxide in saline. This was followed up with one week of intranasal challenge in both nostrils with ovalbumin 25 μl of a 5 mg/ml saline solution per nostril (weekends eliminated).
(§2) Six animals per group were studied and a repeat of each study conducted to provide up to 12 animals per group in the final data set. Animals were pretreated with Compound 1 (intranasal administration 25 μl per nostril of a suspension or oral administration 1 ml of a solution in 50% deionised water 5% DMSO and 45% PEG 200). At a set time point the animals were anaethetised with urethane (1.5 g/kg) i.p. and scanned with magnetic resonance imaging (MRI) to obtain baseline nasal images. Each animal was then removed from the scanner and received an ipsilateral nasal challenge of capsaicin (50 μl of a solution 0.3 mM 5% DMSO, 5% Tween 80, 90% Phosphate buffered saline)) or 10% hypertonic saline solution (50 μl) (administered by pipette. The animal was rescanned at 10 minutes post-challenge to measure the contralateral fluid volumes.
(§3) The fluid measurement was made using standard T2 weighted spin echo MRI sequences on a 2 Tesla Bruker Medspec MRI scanner. The raw data was collected using Paravision 3.0.2 (Bruker) software. […]

[2] = tested on: hypertonic saline provoked nasal secretion; test: Contralateral nasal fluid secretion (MRI) after ipsilateral hypertonic saline challenge in sensitised guinea pig; type: in vivo; details: topical micronised 1 mg/ml, 1 hour pre-treatment, 10% hypertonic saline challenge; p<0.005
Procedure: as §1, §2, §3

[3] = tested on: capsaicin provoked nasal secretion; test: Contralateral nasal fluid secretion (MRI) after ipsilateral capsaicin challenge in sensitised guinea pig; type: in vivo; details: for reduction of contralateral fluid secretion: oral, non micronised, 1 hour prior to 0.3 mM capsaicin challenge; for inhibition of capsaicin provoked nasal secretion: topical (intranasal) non-micronised
Procedure: as §1, §2
The fluid measurement was made using standard T2 weighted spin echo MRI sequences on a 2 Tesla Bruker Medspec MRI scanner. The raw data was collected using Paravision 3.0.2 (Bruker) software. Fluid measurements were made using grey level thresholding technique using Mayo Clinic software Analyze 7.0. Statistical analysis was carried out using the Statistica 6.0 software by StatSoft

[4] = tested on: Capsaicin Induced Currents recorded from Nasally Innervated Guinea-Pig Trigeminal Ganglia Cell Bodies; test: Whole cell patch clamp of capsaicin induced currents in nasally innervated trigeminal ganglia neurons; type: cell-based
Procedure: Nasal afferent neurons were retrogradely labelled by using DiIC13(3) solution (2% in DMSO, sonicated to ensure solubility) (Dil, Invitrogen), A guinea pig was dosed with atropine (1 mg/kg i.p.) 5 minutes prior to anaesthesia with isoflurane. Once unconscious 25 μl of the Dil solution was placed into the right nostril and the guinea pig allowed to recover. After 24 hours the procedure was repeated and the left nostril dosed. After a period of 2 weeks the guinea pig was killed via CO2 asphyxiation and the trigeminal ganglia rapidly dissected. An area of approximately 3 mm×2 mm which contained neurons that innervated the nose was isolated (J. Allergy Clin. Immunol. 2005, 116, 1282), cut into smaller pieces and incubated in enzyme buffer (8 mg papain in 4 ml L-15) at 37° C. for 40 min. The papain solution was removed and the tissue washed three times with 5-5 media (5-5 Media was prepared by the addition of 5 ml Fetal Bovine Serum, 5 ml Horse Serum, 1 ml 5000 Units Penicillin/5000 […] Streptomycin, 1 ml 30% Glucose and 0.33 ml of 1× stock Insulin Transferrin Sodium Selenite to 90 ml Minimum Essential Media with Earle's salts and Glutamax). The neurons were dissociated by trituration with 3 fire-polished glass Pastuer pipettes of decreasing tip size, then the resulting cell suspension filtered and centrifuged (1000 g for 4 min). The pellet was resuspended in 300 μl of 5-5 media. 25 μl of the cell suspension was plated onto poly-D-lysine and laminin coated 12 mm glass coverslips and placed in an incubator at 37° C. After 2 hours the coverslips were flooded with 5-5 media and used within 48 hours. Conventional whole cell patch clamp techniques were employed under voltage clamp (holding potential of −70 mV) at room temperature. Drug solutions were applied to the cell using a Rapid Solution Changer (Biologic). Cell bodies that had innervated the nose were identified using a fluorescence based microscope. All data was analysed using pClamp version 10.2.0.9 and 10.2.0.10 (Molecular Devices Inc).

Row | IC50 ([4]; Cavia porcellus, Neuron, 1 μM capsaicin, voltage clamp −70 mV, room temperature, Hill equation fit, n>4, read-out: IC50, inhibition of capsaicin response (inward current)) [nM] | SMILES | reduction of contralateral tissue swelling compared to vehicle control ([1]; topical micronised 3 mg/ml, p<0.05) [%] | reduction of contralateral tissue swelling compared to vehicle control ([1]; topical micronised 30 mg/ml, p<0.01) [%] | inhibition of the hypertonic saline response (nasal secretion) [2] [%] | reduction of contralateral fluid secretion ([3]; 10 mg/kg, p<0.05) | reduction of contralateral fluid secretion ([3]; 30 mg/kg, p<0.001) | inhibition of capsaicin provoked nasal secretion ([3]; 10 mg/ml, 1 hour pre-treatment, p<0.005) [%] | inhibition of capsaicin provoked nasal secretion ([3]; 30 mg/ml, 1 hour pre-treatment) | inhibition of the capsaicin response (nasal secretion) ([3]; topical micronised, 1 hour pre-treatment, all the doses evaluated) | inhibition of contralateral response (nasal secretion) ([3]; topical micronised, capsaicin challenge 12 hours after pre-treatment) [%] | inhibition of contralateral response (nasal secretion) ([3]; topical micronised, capsaicin challenge 24 hours after pre-treatment) [%] | inhibition of the capsaicin response (current), concentration dependence ([4]; voltage clamp −70 mV) | reversibility of inhibition on switching from capsaicin and Compound 1 to capsaicin only ([4]; voltage clamp −70 mV) | cells tested producing an inward current ([4]; 1 μM capsaicin, small diameter (<30 μm) fluorescent neurons, voltage clamped at −70 mV) [%]
1 | 59 | O=C(Nc1ccccc1Br)N[C@@H]1CCN(c2ccc(C(F)(F)F)cn2)C1 [Compound 1, N-(2-bromophenyl)-N′-[((R)-1-(5-trifluoromethyl-2-pyridyl)pyrrolidin-3-yl)]urea] | 56 | 83 | 68 | ca. 50% | ca. 70% | > 50 | ca. 75% | significant inhibition | 62 | 52 | concentration related inhibition | rapid reversal | –
2 | – | COc1cc(CNC(=O)CCCC/C=C/C(C)C)ccc1O [capsaicin, reference compound] | – | – | – | – | – | – | – | – | – | – | – | – | 56
